Data from ChEMBL document CHEMBL5465560, “Selectivity Literature for EUbOPEN Chemogenomic Library” (2024).

Assays:
[1] = target: T1, Dual specificity mitogen-activated protein kinase kinase 3 (Homo sapiens) (UniProt P46734); conditions: at 10 µM
T1 sequence (whole entry): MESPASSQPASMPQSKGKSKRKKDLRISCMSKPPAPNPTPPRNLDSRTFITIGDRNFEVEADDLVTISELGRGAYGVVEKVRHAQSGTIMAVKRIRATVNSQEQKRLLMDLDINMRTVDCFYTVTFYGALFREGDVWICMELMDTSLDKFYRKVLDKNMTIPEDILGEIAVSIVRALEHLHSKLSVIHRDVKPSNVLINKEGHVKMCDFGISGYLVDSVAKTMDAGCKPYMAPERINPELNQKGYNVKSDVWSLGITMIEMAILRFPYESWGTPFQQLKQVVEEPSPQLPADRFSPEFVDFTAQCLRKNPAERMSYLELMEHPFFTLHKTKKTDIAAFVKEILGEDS

[2] = target: Tyrosine-protein kinase JAK1 (Homo sapiens, UniProt P23458); experiment: Selectivity interaction (Kinase panel (KiNativ target engagement assay in Jurkat cells)) EUB0001635a JAK1; type: cell-based; conditions: Selectivity number of off-targets 0.0, Selectivity number of targets 233.0, Source Knowledge https://www.sciencedirect.com/science/article/pii/S2451945619300674?via%3Dihub, at 1 µM
Sequence of Tyrosine-protein kinase JAK1 (P23458 whole entry): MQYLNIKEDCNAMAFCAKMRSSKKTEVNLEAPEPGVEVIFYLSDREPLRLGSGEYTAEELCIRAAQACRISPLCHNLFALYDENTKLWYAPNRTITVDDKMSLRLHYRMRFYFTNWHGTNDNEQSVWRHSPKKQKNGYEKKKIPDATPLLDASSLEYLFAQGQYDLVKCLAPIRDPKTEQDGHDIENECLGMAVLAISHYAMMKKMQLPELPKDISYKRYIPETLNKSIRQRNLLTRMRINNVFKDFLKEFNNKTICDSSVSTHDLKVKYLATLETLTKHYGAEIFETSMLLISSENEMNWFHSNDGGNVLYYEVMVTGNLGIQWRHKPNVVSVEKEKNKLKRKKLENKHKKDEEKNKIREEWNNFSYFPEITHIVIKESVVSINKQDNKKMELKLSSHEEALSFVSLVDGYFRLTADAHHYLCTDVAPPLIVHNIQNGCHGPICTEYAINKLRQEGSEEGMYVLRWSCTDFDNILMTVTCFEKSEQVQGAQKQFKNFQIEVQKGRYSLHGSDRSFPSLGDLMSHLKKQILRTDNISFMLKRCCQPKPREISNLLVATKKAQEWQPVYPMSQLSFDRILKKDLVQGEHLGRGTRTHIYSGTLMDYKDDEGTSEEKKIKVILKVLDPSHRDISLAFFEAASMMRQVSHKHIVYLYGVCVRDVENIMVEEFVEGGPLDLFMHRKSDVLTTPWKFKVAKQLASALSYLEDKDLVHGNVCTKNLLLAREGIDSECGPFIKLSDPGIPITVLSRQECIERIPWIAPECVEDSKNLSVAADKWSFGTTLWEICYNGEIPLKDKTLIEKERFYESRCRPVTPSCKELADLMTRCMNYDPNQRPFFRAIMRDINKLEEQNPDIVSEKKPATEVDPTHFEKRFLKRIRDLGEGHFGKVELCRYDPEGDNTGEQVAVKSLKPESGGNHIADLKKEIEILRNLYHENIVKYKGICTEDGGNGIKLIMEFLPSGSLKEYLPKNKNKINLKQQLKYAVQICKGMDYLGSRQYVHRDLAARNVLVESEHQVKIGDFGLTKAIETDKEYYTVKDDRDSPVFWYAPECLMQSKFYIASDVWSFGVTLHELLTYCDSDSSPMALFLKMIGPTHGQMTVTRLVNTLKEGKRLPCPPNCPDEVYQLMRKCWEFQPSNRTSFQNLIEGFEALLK

[3] = target: 3',5'-cyclic-AMP phosphodiesterase 4A (Homo sapiens, UniProt P27815); experiment: Selectivity interaction (Enzyme panel (AstraZeneca, AlphaScreen, functional assay)) EUB0000621a PDE4A
Sequence of 3',5'-cyclic-AMP phosphodiesterase 4A (P27815 whole entry): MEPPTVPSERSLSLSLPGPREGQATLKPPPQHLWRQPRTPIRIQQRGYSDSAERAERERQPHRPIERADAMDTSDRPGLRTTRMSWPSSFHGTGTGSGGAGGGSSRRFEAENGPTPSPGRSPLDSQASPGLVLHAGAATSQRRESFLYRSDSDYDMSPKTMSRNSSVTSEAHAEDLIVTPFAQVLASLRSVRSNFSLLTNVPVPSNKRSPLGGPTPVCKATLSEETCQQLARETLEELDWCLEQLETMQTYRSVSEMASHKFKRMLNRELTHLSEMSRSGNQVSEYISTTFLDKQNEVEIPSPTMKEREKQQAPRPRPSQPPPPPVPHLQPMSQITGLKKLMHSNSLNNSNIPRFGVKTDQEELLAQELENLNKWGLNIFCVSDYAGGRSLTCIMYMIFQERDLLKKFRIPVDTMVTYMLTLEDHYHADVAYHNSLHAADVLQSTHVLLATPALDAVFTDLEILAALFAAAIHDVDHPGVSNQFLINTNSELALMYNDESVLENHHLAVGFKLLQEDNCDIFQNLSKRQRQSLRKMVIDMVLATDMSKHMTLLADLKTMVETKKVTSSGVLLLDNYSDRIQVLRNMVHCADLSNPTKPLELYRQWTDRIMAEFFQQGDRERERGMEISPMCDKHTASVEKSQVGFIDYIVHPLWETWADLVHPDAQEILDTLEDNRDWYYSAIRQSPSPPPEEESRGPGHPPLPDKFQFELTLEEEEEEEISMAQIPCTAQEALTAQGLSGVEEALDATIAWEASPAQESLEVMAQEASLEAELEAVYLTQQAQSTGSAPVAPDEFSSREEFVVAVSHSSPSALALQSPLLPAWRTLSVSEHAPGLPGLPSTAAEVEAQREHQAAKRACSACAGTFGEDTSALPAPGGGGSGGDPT

[4] = target: T2, Serine/threonine-protein kinase ULK1 (Homo sapiens) (UniProt O75385); experiment: Selectivity interaction (LanthaScreen Eu Kinase Binding Assay) EUB0001632a ULK1; conditions: at 10 µM
T2 sequence (whole entry): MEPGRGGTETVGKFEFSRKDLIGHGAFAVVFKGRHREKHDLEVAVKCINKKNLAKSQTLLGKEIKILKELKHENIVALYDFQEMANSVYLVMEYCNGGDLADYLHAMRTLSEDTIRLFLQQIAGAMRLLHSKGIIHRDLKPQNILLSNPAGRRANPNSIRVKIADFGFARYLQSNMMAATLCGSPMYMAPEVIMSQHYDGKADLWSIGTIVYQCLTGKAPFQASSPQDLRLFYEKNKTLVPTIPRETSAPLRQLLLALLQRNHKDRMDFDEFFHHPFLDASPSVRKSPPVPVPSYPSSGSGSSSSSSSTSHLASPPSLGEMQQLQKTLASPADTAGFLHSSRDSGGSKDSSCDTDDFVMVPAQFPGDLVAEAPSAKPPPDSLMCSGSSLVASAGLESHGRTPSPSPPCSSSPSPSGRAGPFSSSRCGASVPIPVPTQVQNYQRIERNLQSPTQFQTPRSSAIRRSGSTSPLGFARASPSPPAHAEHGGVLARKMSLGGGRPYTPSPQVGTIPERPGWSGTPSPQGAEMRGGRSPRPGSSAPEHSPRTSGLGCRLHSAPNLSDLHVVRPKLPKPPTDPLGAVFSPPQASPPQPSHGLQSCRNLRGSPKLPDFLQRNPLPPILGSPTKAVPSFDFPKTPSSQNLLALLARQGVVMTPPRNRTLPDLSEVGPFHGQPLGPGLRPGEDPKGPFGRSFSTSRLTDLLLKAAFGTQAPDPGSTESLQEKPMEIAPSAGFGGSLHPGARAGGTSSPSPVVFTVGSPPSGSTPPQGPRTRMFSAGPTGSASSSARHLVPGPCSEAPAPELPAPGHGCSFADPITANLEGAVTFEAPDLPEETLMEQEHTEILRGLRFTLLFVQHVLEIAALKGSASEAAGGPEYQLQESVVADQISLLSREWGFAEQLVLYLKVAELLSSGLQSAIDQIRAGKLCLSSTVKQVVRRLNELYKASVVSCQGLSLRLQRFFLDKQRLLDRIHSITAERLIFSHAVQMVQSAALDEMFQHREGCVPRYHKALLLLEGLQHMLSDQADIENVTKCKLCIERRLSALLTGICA

[5] = target: WD repeat-containing protein 48 (Homo sapiens) (UniProt Q8TAF3); experiment: Selectivity interaction (PWWP, WD40, and Tudor domain panel (DSLS measurements, literature)) EUB0000270b WDR48
[6] = target: Serine/threonine-protein kinase 10 (Homo sapiens) (UniProt O94804); experiment: Selectivity interaction (KinomeScan (DiscoverX)) EUB0001049a STK10; conditions: at 1 µM
Sequence of Serine/threonine-protein kinase 10 (Homo sapiens) (O94804 whole entry, looked up): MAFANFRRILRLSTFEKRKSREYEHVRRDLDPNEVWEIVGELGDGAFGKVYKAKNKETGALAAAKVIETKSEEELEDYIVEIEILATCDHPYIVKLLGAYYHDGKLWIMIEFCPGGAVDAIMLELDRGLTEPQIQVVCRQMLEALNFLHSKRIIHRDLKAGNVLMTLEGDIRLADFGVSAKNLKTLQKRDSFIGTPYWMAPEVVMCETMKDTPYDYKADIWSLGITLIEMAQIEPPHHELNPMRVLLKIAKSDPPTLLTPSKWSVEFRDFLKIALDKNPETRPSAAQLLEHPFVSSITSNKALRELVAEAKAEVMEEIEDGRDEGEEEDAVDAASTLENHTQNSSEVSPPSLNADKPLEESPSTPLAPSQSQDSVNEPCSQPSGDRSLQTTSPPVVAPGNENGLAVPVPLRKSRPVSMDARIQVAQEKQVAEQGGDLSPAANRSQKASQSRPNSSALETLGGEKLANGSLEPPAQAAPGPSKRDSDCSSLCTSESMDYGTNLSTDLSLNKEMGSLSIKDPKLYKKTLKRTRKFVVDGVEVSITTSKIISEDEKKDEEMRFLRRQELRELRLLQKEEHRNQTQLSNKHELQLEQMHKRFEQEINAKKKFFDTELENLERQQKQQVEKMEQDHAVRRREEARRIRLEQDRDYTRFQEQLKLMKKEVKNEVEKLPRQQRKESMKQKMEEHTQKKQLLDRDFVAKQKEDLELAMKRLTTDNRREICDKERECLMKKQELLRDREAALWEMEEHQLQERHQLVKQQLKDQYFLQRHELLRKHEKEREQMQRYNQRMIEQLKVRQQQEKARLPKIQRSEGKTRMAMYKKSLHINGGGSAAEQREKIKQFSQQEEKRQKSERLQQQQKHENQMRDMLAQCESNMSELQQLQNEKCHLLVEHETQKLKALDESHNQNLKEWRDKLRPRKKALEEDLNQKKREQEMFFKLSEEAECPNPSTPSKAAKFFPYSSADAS

[7] = tested on: Epidermal growth factor receptor (Homo sapiens), P00533 [UNDEFINED MUTATION]; experiment: Selectivity interaction (KinomeScan (DiscoverX)) EUB0000045b EGFR; conditions: at 1 µM
Sequence of Epidermal growth factor receptor (Homo sapiens), P00533 [UNDEFINED MUTATION] (P00533 whole entry, looked up, change not shown): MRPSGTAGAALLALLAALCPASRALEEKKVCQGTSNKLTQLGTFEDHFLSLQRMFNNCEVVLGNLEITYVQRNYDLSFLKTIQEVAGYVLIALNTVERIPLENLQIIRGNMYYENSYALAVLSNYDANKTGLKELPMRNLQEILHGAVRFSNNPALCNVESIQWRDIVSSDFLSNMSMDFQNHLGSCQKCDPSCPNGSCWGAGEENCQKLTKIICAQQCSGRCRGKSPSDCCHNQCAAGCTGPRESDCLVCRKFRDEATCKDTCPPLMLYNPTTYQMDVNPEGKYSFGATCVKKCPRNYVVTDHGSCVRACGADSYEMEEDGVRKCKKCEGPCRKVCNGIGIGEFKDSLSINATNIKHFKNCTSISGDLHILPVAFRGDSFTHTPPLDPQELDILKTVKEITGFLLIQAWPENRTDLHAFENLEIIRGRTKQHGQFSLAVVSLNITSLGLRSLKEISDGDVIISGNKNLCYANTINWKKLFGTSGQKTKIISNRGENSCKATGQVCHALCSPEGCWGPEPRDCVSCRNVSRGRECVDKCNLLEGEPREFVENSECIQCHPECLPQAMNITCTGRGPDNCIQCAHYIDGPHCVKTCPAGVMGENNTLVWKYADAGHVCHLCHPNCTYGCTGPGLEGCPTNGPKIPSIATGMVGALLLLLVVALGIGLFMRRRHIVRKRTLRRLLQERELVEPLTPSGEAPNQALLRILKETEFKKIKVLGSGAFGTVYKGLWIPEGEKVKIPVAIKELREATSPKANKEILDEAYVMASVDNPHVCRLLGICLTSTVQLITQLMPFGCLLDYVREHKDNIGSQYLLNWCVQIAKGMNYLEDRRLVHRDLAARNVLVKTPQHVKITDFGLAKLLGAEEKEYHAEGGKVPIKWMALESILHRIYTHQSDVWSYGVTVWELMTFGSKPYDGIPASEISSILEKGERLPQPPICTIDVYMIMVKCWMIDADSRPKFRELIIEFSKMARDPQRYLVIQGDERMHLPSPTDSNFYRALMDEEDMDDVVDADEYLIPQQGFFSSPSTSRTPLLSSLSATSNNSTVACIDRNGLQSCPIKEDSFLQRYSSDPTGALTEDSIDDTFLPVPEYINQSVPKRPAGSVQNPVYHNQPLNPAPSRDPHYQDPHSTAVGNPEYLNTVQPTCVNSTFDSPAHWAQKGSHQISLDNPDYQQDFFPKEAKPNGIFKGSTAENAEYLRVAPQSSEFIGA

[8] = target: RAC-gamma serine/threonine-protein kinase (Homo sapiens, UniProt Q9Y243); experiment: Selectivity interaction (KinomeScan (DiscoverX)) EUB0001619a AKT3; conditions: at 1 µM
Sequence of RAC-gamma serine/threonine-protein kinase (Q9Y243 whole entry): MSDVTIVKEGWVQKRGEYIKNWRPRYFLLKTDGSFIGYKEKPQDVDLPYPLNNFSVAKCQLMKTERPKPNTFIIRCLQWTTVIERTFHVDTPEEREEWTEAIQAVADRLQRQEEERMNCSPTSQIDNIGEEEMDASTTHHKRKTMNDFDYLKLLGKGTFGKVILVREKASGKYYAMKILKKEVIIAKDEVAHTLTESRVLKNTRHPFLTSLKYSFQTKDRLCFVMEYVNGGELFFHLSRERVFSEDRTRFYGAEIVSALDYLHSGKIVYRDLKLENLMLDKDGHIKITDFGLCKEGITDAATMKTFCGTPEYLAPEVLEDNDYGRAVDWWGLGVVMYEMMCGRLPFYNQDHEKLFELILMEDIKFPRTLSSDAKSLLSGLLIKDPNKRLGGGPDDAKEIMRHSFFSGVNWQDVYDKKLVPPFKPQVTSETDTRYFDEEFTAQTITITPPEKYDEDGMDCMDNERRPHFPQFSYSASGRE

Work on `CCN(CC)CCCCNc1ncc2cc(-c3cc(OC)cc(OC)c3)c(NC(=O)NC(C)(C)C)nc2n1` yielded a % of control [1] of 100%.

For `C=CC(=O)Nc1ccc(C(=O)Nc2[nH]nc3c2CN(C(=O)N[C@H](CN(C)C)c2ccccc2)C3(C)C)cc1`, the % of engagement [2] was 7.9%.

In the case of `Cc1cc([C@@H](C)Nc2ccccc2C(=O)O)c2nc(N3CCOCC3)cc(=O)n2c1` [AZD-6482], the IC50 [3] is reported as 17 µM.

For `Cn1cc(-n2cnc3c(NCc4nc5cc(Cl)c(Cl)cc5[nH]4)nc(N4CCOCC4)nc32)cn1`, the % of inhibition [4] was -7.27%.

`Cc1cc(CN)cc(C)c1-c1ncn(C)c1-c1cncn1C` showed a dTagg [5] of 0.1 K.

For `COc1cc(Nc2nc(C)cc(-c3cnn4nc(OC)ccc34)n2)cc(C(F)(F)F)c1`, the % of control [6] was 86%.

`C=CC(=O)Nc1cc(-n2c(=O)ccc3cnc4ccc(-c5ccc(NS(C)(=O)=O)cc5)cc4c32)ccc1C` showed a % of control [7] of 51%.

With `N#Cc1cccc(-c2c[nH]c3ncnc(N4CCOCC4)c23)c1` the % of control [8] was 100%.
